Reference: PubChem BioAssay AID2124 (Sanford-Burnham Center for Chemical Genomics, 2009)
Results filed as inconclusive are left out. Calls of active or inactive are those of the source. The rule behind the calls is not given here; tested in MIN6 cells.

Experiment: GFP-wavelength compound autofluorescence in cells – imaging, high-content imaging, artefact control, dose response (AID 2124);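 note: cells exposed to compound for 48 hours before fixing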
Details: cells, GFP-channel autofluorescence, high-content imaging, at 10 µM; for z-score: stronger effect = higher value

Row | SMILES | z-score | cell count
1 | CN(C)C=Nc1ccc2nn(-c3ccccc3)nc2c1 | -0.34 (inactive) | 3050 cells
2 | CCC(C)(C(=O)NC1CCCC1)N(C(=O)CNC(C)=O)c1ccccc1 (stereo not given) | -0.39 (inactive) | 2960 cells
3 | CCOc1ccc(CNC(=O)CCn2c(=O)oc3ccccc32)cc1 | -0.38 (inactive) | 3060 cells
4 | COc1cc([N+](=O)[O-])ccc1-c1ccc(/C=N/NC(N)=O)o1 | -0.34 (inactive) | 2860 cells
5 | Cn1c(=O)c(N)c2c3c(c(Br)ccc31)C(=O)c1ccccc1-2 | 0.12 | 3210 cells
6 | O=c1ccnc(Nc2ccc3c(c2)OCCO3)[nH]1 | -0.39 (inactive) | 2860 cells
7 | O=C(CSc1ccc(-c2ccccc2)nn1)NCC1CCCO1 (stereo not given) | -0.38 (inactive) | 2970 cells
8 | O=c1c(N2CCOCC2)c(N2CCOCC2)c1=O | -0.39 (inactive) | 3130 cells
9 | Cc1cc(C)nc(SCSc2nc(C)cc(C)n2)n1 | -0.38 (inactive) | 3370 cells
10 | O=C1S/C(=C\c2ccc(N3CCOCC3)o2)C(=O)N1Cc1ccc(F)cc1 | 1.17 | 665 cells
11 | C/C(=N\S(=O)(=O)c1ccc(C)cc1)N1CCN(S(=O)(=O)c2ccccc2)C1 | -0.38 (inactive) | 3140 cells
12 | Cc1oc(C)c2c(=O)ccc3c(c12)OC(N)=C(C#N)C3c1ccccc1 (stereo not given) | -0.38 (inactive) | 2830 cells
13 | CN1C2CCC1/C(=C/c1cccn1C)C(=O)/C2=C\c1cccn1C | -0.29 (inactive) | 3280 cells
14 | CC1CN(C(=O)CCn2c(=O)oc3ccccc32)CC(C)O1 (stereo not given) | -0.39 (inactive) | 3070 cells
15 | Cc1ccccc1SCc1noc(C(=O)NC(C)C)c1C(=O)O | -0.39 (inactive) | 3150 cells
16 | COc1ccc(OCC(=O)Nc2ccc(S(=O)(=O)Nc3cc(C)nc(C)n3)cc2)cc1 | -0.33 (inactive) | 3070 cells
17 | O=[N+]([O-])c1ccc(N/N=C/c2sc(N3CCOCC3)nc2-c2ccccc2)c(S(=O)(=O)Nc2ccccc2Cl)c1 | 0.01 | 144 cells
18 | CCc1cc2c(CN3CCN(CCO)CC3)cc(=O)oc2cc1O | -0.38 (inactive) | 3140 cells
19 | CCCSc1nc2sc3c(c2c(=O)[nH]1)CCN(Cc1ccccc1)C3 | -0.3 (inactive) | 3160 cells
20 | CCCCN1C(=O)/C(=C/C=C2\Oc3ccccc3N2CC)SC1=S | 1.42 | 3450 cells
21 | Nc1c(C(=O)c2cccs2)sc2nsc(SCCN3CCCCC3)c12 | 0.3 | 2930 cells
22 | CCN(CC)C(=O)c1sc2nc(-c3cccs3)cc(-c3cccs3)c2c1N | -0.2 (inactive) | 3420 cells
23 | Cc1ccc(SCc2cc(-c3ccc(Cl)cc3)no2)cc1 | -0.38 (inactive) | 2860 cells
24 | Cn1ncc2c1ncn1nc(CCc3ccccc3)nc21 | -0.33 (inactive) | 2710 cells
25 | CCOCCCNc1nc2c(C)cccn2c(=O)c1/C=C1\SC(=S)N(CC(C)C)C1=O | -0.38 (inactive) | 2900 cells
26 | CCC(C)N1C(=O)/C(=C/c2c(NCCCOC(C)C)nc3c(C)cccn3c2=O)SC1=S (stereo not given) | 1.19 | 2350 cells
27 | O=C(Nc1ccc(C2CCCCC2)cc1)C1CCCN(c2ncccn2)C1 (stereo not given) | -0.38 (inactive) | 2990 cells

Row | SMILES | z-score | cell count
28 | COc1ccccc1N1CCN(C/C(O)=C(\C#N)c2nc(-c3ccccc3)cs2)CC1 | -0.38 (inactive) | 3090 cells
29 | O=C(CCN1C(=O)/C(=C/c2cccs2)SC1=S)NNC(=O)c1cccc(O)c1 | -0.33 (inactive) | 3190 cells
30 | C1=C(N2CCOCC2)/C(=C/c2nc3ccccc3[nH]2)CC1 | -0.33 (inactive) | 3040 cells
31 | C=CCNC(=O)C1CC2Cn3c(nc4cc5ccccc5cc43)C2N1C (stereo not given) | -0.39 (inactive) | 3390 cells
32 | CC1(C)c2ccccc2N2CC(=O)NC21/C=C/c1ccco1 (stereo not given) | -0.33 (inactive) | 2980 cells
33 | O=c1[nH]c(/C=C/c2ccccc2OC(F)F)nc2c1cnn2-c1ccccc1 | -0.38 (inactive) | 2240 cells
34 | CCn1nnc2sc3c(c2c1=O)CCC(C)C3 (stereo not given) | -0.39 (inactive) | 3170 cells
35 | Cc1ccc(-n2c(C)nc3oc4ccccc4c(=O)c3c2=O)cc1 | -0.33 (inactive) | 3180 cells
36 | CC(=O)C1=C(C)Nc2ncnn2C1c1ccc(Cl)cc1Cl (stereo not given) | -0.33 (inactive) | 3270 cells
37 | CCOc1cc(C)c(S(=O)(=O)Nc2ccc3cn[nH]c3c2)cc1C | -0.33 (inactive) | 1550 cells
38 | Cc1cccc2sc(NNC(=O)c3ccc4c(c3)OCCO4)nc12 | -0.39 (inactive) | 3230 cells
39 | COc1ccc(C(=O)N(CN2CCCC2=O)c2ccc(C)cc2)cc1 | -0.33 (inactive) | 3380 cells
40 | CCN(CC)c1ccc(/C=C(/C#N)c2nc3ccc(C)cc3[nH]2)c(OC(C)C)c1 | 2.57 | 1480 cells
41 | N#CC(C#N)=C1C=C2C=C(N3CCCCC3)CCC2CC1 (stereo not given) | 3 | 3020 cells
42 | CC1(C)Cc2c(ccc3ccccc23)C(c2cc3ccccc3oc2=O)=N1 | -0.33 (inactive) | 2730 cells
43 | N#C/C(=C/c1ccc(N2CCCCC2)o1)C(=O)Nc1ccc2ccccc2c1 | 5.59 | 3000 cells
44 | O=C(NCCc1csc(-c2ccccc2)n1)c1ccccc1F | -0.25 (inactive) | 3010 cells
45 | COc1ccc(C2=NC(=O)/C(=C\c3cc(OC)c(OC)c(OC)c3)O2)cc1 | -0.38 (inactive) | 2830 cells
46 | CCCc1cc(=O)[nH]c(SCC(=O)NCCCC(=O)OCC)n1 | -0.33 (inactive) | 3040 cells
47 | Cc1cc(=O)oc2cc(OCC(=O)OCC(=O)NC3CC3)ccc12 | -0.38 (inactive) | 3150 cells
48 | CN1C(=O)CC(N2CCN(Cc3ccc(Cl)cc3)CC2)C1=O (stereo not given) | -0.39 (inactive) | 2870 cells
49 | Cc1cc(S(=O)(=O)NC2CCCCC2)c(C)s1 | -0.33 (inactive) | 3420 cells
50 | CN(C)C(=O)CN(c1ccc2c(c1)OCO2)S(C)(=O)=O | -0.33 (inactive) | 2880 cells
51 | N#C/C(=C/c1ccc(N2CCCCC2)o1)C(=O)NCCc1c[nH]c2ccccc12 | 0.47 | 3410 cells
52 | O=Cc1sc(Nc2ccccc2)nc1Cl | -0.31 (inactive) | 3150 cells
53 | CC1CC(C)CN(C(=O)c2cccc3c2-c2ccccc2C3=O)C1 (stereo not given) | -0.38 (inactive) | 3240 cells
54 | O=C(CC12CC3CC(CC(C3)C1)C2)NCC(=O)N1CCc2ccccc2C1 | -0.33 (inactive) | 2920 cells

Row | SMILES | z-score | cell count
55 | Cc1cc(C)cc(N=Cc2[nH]c3ccc(Br)c(Cl)c3c2O)c1 | 0.1 | 2820 cells
56 | Oc1ccc(Cl)cc1C1=Nc2ccccc2N=C(c2ccco2)C1 | -0.35 (inactive) | 2660 cells
57 | CSc1c(C#N)c(N)nc2sc(C(=O)c3ccc(Cl)c(Cl)c3)c(N)c12 | -0.28 (inactive) | 2770 cells
58 | CC(=O)OC(C(=O)NCc1ccc(F)cc1)c1ccccn1 (stereo not given) | -0.39 (inactive) | 2840 cells
59 | O=C(NCC1CCCO1)C1CCN(S(=O)(=O)N2CCCC2)CC1 (stereo not given) | -0.33 (inactive) | 3190 cells
60 | N#C/C(=C\c1ccc(N2CCOCC2)o1)c1nc2ccccc2[nH]1 | 0.96 | 2400 cells
61 | CCN(CCNC(=O)C1CCCN(S(=O)(=O)CC)C1)c1ccccc1 (stereo not given) | -0.33 (inactive) | 3430 cells
62 | CCN1C=CC2=C(C#N)C(N)C(C#N)(C#N)C(c3ccccc3C(F)(F)F)C2C1 (stereo not given) | 0.77 | 2720 cells
63 | N#C/C(=C/c1ccc(N2CCOCC2)o1)c1nc2ccccc2[nH]1 | 0.11 | 2960 cells
64 | CCOC(=O)CN1CC23C=CC(O2)C(C(=O)Nc2cc(OC)ccc2OC)C3C1=O (stereo not given) | -0.38 (inactive) | 3210 cells
65 | CC1CCN(C(=O)CNS(=O)(=O)c2ccc(Br)s2)CC1 | -0.33 (inactive) | 3290 cells
66 | CCOC(=O)c1nn(-c2ccc(Cl)cc2Cl)c(=N)c(C#N)c1C | 0.25 | 2790 cells
67 | COC1=CCC2([N+](=O)[O-])CN(CCO)CC1([N+](=O)[O-])C2 (stereo not given) | -0.33 (inactive) | 3440 cells
68 | CCc1cccc2cc3c(N)c(C(=O)Nc4ccc(S(=O)(=O)N5CCCC5)cc4)sc3nc12 | 0.3 | 2430 cells
69 | O=C(Nc1ccc(N2CCCCC2)cc1)c1cccnc1 | -0.39 (inactive) | 3060 cells
70 | CCOc1ccc(-n2c(SCC(=O)NC(C)CC)nc3n[nH]c(C)c3c2=N)cc1 (stereo not given) | -0.39 (inactive) | 2580 cells
71 | CC1CCCC(C2(O)C(=O)Nc3ccccc32)C1=O (stereo not given) | -0.33 (inactive) | 3180 cells
72 | CC(C)(CNS(=O)(=O)c1ccc(Cl)cc1)N1CCCCC1 | -0.34 (inactive) | 3730 cells
73 | O=C1S/C(=C\c2ccc(N3CCOCC3)o2)C(=O)N1Cc1c(F)cccc1Cl | 2.04 | 1540 cells
74 | COC(=O)c1[nH]c2cccc(Cl)c2c1NC(=O)CN(C)C1CCCCC1 | -0.33 (inactive) | 3280 cells
75 | Cc1[nH]c2ccccc2c1/C=N/Nc1ccc([N+](=O)[O-])cc1S(=O)(=O)Nc1ccc(Cl)cc1 | 0.35 | 2050 cells
76 | CCn1cc(C(=O)NCCN(C)CCc2ccccc2)c(=O)c2cc(S(=O)(=O)N(C)C)ccc21 | -0.33 (inactive) | 3360 cells
77 | CC(=O)C(=Cc1cn(-c2ccccc2)nc1-c1ccccc1)C(C)=O | -0.32 (inactive) | 3020 cells
78 | CCn1ncc(Br)c1C(=O)Nc1sc2c(c1C(N)=O)CCC2 | -0.39 (inactive) | 3350 cells
79 | N#C/C(=C/c1ccc(N2CCCCC2)o1)C(=O)Nc1ccc(Cl)cc1 | 3 | 2990 cells
80 | CCCCCCc1cc2cc(-c3nnc(-c4ccccc4OC)o3)c(=O)oc2cc1O | -0.21 (inactive) | 2630 cells
